Data: ChEMBL document CHEMBL1125842, “Synthesis and anticonvulsant activity of 2-iminohydantoins” (J Med Chem, 1991)
Activity calls are given as the source filed them. No cut-off for these calls is given here.

Columns and labels:
Mus musculus [1] = assay: Anticonvulsant activity was measured from mES test by delivering the drug intraperitoneally after 0.5 hr; type: functional; conditions: ip
Mus musculus [2] = assay: Anticonvulsant activity was measured from scMET test by delivering the drug intraperitoneally after 0.5 hr; type: functional; conditions: ip
[3] = Protective index was determined as ratio of TD50 to ED50(MES method); type: functional
Mus musculus [4] = assay: ED50 was evaluated from MES test in mice by delivering intraperitoneally and the value was determined at peak time effect or peak neurologic effect.; type: functional; conditions: ip
[5] = Protective index was determined as ratio of TD50 to ED50(scMET method); type: functional
[6] = Neurotoxicity was determined from the rotarod ataxia test for the compound by the intraperitoneal administration.; type: toxicity, organism-based; conditions: mouse, in vivo, ip
Mus musculus [7] = assay: ED50 was evaluated from scMET test in mice by delivering intraperitoneally and the value was determined at peak time effect or peak neurologic effect.; type: functional; conditions: ip
Mus musculus [8] = species on record: Mus musculus; assay: animal or person; conditions: ip
Mus musculus [9] = species on record: Mus musculus
Mus musculus [10] = species on record: Mus musculus; remark: listed apart in the source
Description: ED50 was evaluated from scMET test in mice by delivering intraperitoneally and the value was determined at peak time effect or peak neurologic effect; NA-Not active

Mus musculus [11] = assay: Anticonvulsant activity was measured from mES test by delivering the drug intraperitoneally after 0.5 hr; NA-Not active; type: functional, organism-based

| SMILES | ED50 (Mus musculus [1]) | ED50 (Mus musculus [2]) | ED50 (Mus musculus [4]) | ED50 (Mus musculus [7]) | also measured |
| --- | --- | --- | --- | --- | --- |
| NC1=NC(=O)CN1C(=O)OCc1ccccc1 | 459 mg/kg |  |  |  |  |
| CC(C)C[C@@H]1N=C(N)NC1=O |  | > 300 mg/kg |  |  |  |
| NC1=NC(=O)[C@H](Cc2ccccc2)N1C(=O)OCc1ccccc1 | 213 mg/kg | > 1000 mg/kg |  |  |  |
| CC(C)C[C@H]1C(=O)N=C(N)N1C(=O)OCc1ccccc1 | 44.5 mg/kg | 92.8 mg/kg | 98.6 mg/kg | 141 mg/kg | PI [3]: 3.5; PI [5]: 2.5; TD50 [6]: 350 mg/kg |
| NC1=NC(=O)[C@H](Cc2ccccc2)N1 | 97.8 mg/kg | > 1000 mg/kg |  |  |  |
| CC(C)C[C@@H]1C(=O)N=C(N)N1C(=O)OCc1ccccc1 |  | 547 mg/kg |  |  |  |
| CCC1(C)CC(=O)NC1=O (stereo not given) [ETHOSUXIMIDE] |  |  | > 1000 mg/kg | 130 mg/kg | TD50 (Mus musculus [8]): 441 mg/kg |
| CCC1(c2ccccc2)NC(=O)N(C)C1=O (stereo not given) [MEPHENYTOIN] |  |  | 61 mg/kg | 31 mg/kg |  |
| NC(=O)NC(=O)Cc1ccccc1 [PHENACEMIDE] |  |  | 87 mg/kg |  | PI [3]: 4.8; PI [5]: 3.6 |
| CCC1(c2ccccc2)C(=O)NC(=O)NC1=O [PHENOBARBITAL] |  |  | 21.8 mg/kg | 13.2 mg/kg | TD50 (Mus musculus [8]): 69 mg/kg |
| O=C1NC(=O)C(c2ccccc2)(c2ccccc2)N1 [PHENYTOIN] | 2.3 mg/kg |  |  |  | ED50 (Mus musculus [9]): inactive; ED50 (Mus musculus [10]): inactive |
| O=C1NC(=S)NC1(c1ccccc1)c1ccccc1 [THIOPHENYTOIN] |  | 1340 mg/kg |  |  | ED50 (Mus musculus [11]): inactive |
